ChEMBL document CHEMBL1150831, “Immunosuppressive sesquiterpene alkaloids from Tripterygium wilfordii” (2001)
The source made the active and inactive calls. No cut-off for these calls is given here.

How the values were obtained:
Format in all cases: functional
PBMC [1] = assay: Immunosuppressive activity in human PBMC assessed as inhibition of LPS-stimulated IL8 production at 10 ug/mL after 18 to 24 hrs by ELISA
PBMC [2] = assay: Immunosuppressive activity in human PBMC assessed as inhibition of LPS-stimulated TNFalpha production at 10 ug/mL after 18 to 24 hrs by ELISA
PBMC [3] = assay: Immunosuppressive activity in human PBMC assessed as inhibition of LPS-stimulated IL1-beta production at 10 ug/mL after 18 to 24 hrs by ELISA
PBMC [4] = assay: Immunosuppressive activity in human PBMC assessed as inhibition of LPS-stimulated IL4 production at 10 ug/mL after 18 to 24 hrs by ELISA
PBMC [5] = assay: Immunosuppressive activity in human PBMC assessed as inhibition of LPS-stimulated IFN-gamma production at 10 ug/mL after 18 to 24 hrs by ELISA
PBMC [6] = assay: Immunosuppressive activity in human PBMC assessed as inhibition of LPS-stimulated IL2 production at 10 ug/mL after 18 to 24 hrs by ELISA

Compound | inhibition at 10 µg/mL (PBMC [1]) | inhibition at 10 µg/mL (PBMC [2]) | inhibition at 10 µg/mL (PBMC [3]) | inhibition at 10 µg/mL (PBMC [4]) | inhibition at 10 µg/mL (PBMC [5]) | inhibition at 10 µg/mL (PBMC [6]) | inhibition (PBMC [1]) | inhibition (PBMC [2]) | inhibition (PBMC [3]) | inhibition (PBMC [4]) | inhibition (PBMC [5]) | inhibition (PBMC [6])
CC(=O)OC[C@]12[C@H](OC(C)=O)C(=O)[C@@H]3[C@@H](OC(C)=O)[C@@]14O[C@@]3(C)COC(=O)c1cnccc1CCC(C)(O)C(=O)O[C@@H]([C@H](OC(C)=O)[C@@H]2OC(C)=O)[C@]4(C)O (stereo partly specified) | 64% | 10% | 18% | 77% | 62% | 47% |  |  |  |  |  | 
CC(=O)OC[C@]12[C@H](OC(C)=O)[C@H](OC(C)=O)[C@@H]3[C@@H](OC(C)=O)[C@@]14O[C@@]3(C)COC(=O)c1cccnc1C(C)C(C)C(=O)O[C@@H]([C@H](OC(C)=O)[C@@H]2OC(=O)c1ccccc1)[C@]4(C)O (stereo partly specified) [MAYTEINE] | 2% | -9% | 2% | 14% | 36% | 55% |  |  |  |  |  | 
CC(=O)OC[C@]12[C@H](OC(C)=O)[C@H](OC(C)=O)[C@@H]3[C@@H](OC(=O)c4ccccc4)[C@@]14O[C@@]3(C)COC(=O)c1cccnc1CC[C@@](C)(OC(=O)c1ccccc1)C(=O)O[C@@H]([C@H](OC(C)=O)[C@@H]2OC(C)=O)[C@]4(C)O [WILFORNINE C] | -8% | -11% | -6% | 39% | 32% | 51% |  |  |  |  |  | 
CC(=O)OC[C@]12[C@H](OC(C)=O)[C@H](OC(=O)c3cccnc3)[C@@H]3[C@@H](OC(C)=O)[C@@]14O[C@@]3(C)COC(=O)c1cccnc1C(C)C(C)C(=O)O[C@@H]([C@H](OC(C)=O)[C@@H]2OC(C)=O)[C@]4(C)O (stereo partly specified) |  |  |  |  |  |  | inactive | inactive | inactive | inactive | inactive | inactive
CC(=O)OC[C@]12[C@H](OC(C)=O)[C@H](OC(C)=O)[C@@H]3[C@@H](OC(C)=O)[C@@]14O[C@@]3(C)COC(=O)c1cccnc1CC[C@H](C)C(=O)O[C@@H]([C@H](OC(=O)c1ccccc1)[C@@H]2OC(C)=O)[C@]4(C)O | 1% | 79% | 64% | 16% | 41% | 67% |  |  |  |  |  | 
CC(=O)OC[C@]12[C@H](OC(C)=O)[C@H](OC(C)=O)[C@@H]3[C@@H](OC(C)=O)[C@@]14O[C@@]3(C)COC(=O)c1cnccc1C(C)C(C)(O)C(=O)O[C@@H]([C@H](OC(=O)c1ccccc1)[C@@H]2OC(C)=O)[C@]4(C)O (stereo partly specified) [HYPOGLAUNINE C] | -26% | -28% | 2% | 51% | 20% | 57% |  |  |  |  |  | 
CC(=O)OC[C@]12[C@H](OC(C)=O)[C@H](OC(C)=O)[C@@H]3[C@@H](OC(=O)c4ccccc4)[C@@]14O[C@@]3(C)COC(=O)c1cccnc1C(C)C(C)C(=O)O[C@@H]([C@H](OC(C)=O)[C@@H]2OC(C)=O)[C@]4(C)O (stereo partly specified) | 84% | 37% | 43% | 100% | 99% | 100% |  |  |  |  |  | 
CC(=O)OC[C@]12[C@H](OC(C)=O)[C@H](OC(C)=O)[C@@H]3[C@@H](OC(=O)c4ccccc4)[C@@]14O[C@@]3(C)COC(=O)c1cnccc1C(C)C(C)(O)C(=O)O[C@@H]([C@H](OC(=O)c1ccccc1)[C@@H]2OC(C)=O)[C@]4(C)O (stereo partly specified) |  |  |  |  |  |  | inactive | inactive | inactive | inactive | inactive | inactive
CC(=O)OC[C@]12[C@H](OC(C)=O)[C@H](OC(C)=O)[C@@H]3[C@@H](OC(C)=O)[C@@]14O[C@@]3(C)COC(=O)c1cccnc1CC[C@@](C)(O)C(=O)O[C@@H]([C@H](OC(C)=O)[C@@H]2OC(C)=O)[C@]4(C)O |  |  |  |  |  |  | inactive | inactive | inactive | inactive | inactive | inactive
CC(=O)OC[C@]12[C@H](OC(C)=O)[C@H](OC(C)=O)[C@@H]3[C@@H](OC(C)=O)[C@@]14O[C@@]3(C)COC(=O)c1cccnc1CC[C@H](C)C(=O)O[C@@H]([C@H](OC(C)=O)[C@@H]2OC(C)=O)[C@]4(C)O [WILFORMINE] | 60% | 20% | 14% | 77% | 71% | 50% |  |  |  |  |  | 
CC(=O)OC[C@]12[C@H](OC(C)=O)[C@H](OC(C)=O)[C@@H]3[C@@H](OC(C)=O)[C@@]14O[C@@]3(C)COC(=O)c1cccnc1C(C)C(C)C(=O)O[C@@H]([C@H](OC(C)=O)[C@@H]2OC(C)=O)[C@]4(C)O (stereo partly specified) [EUONYMINE] | 31% | 55% | 47% | 11% | 28% | 53% |  |  |  |  |  | 
CC(=O)OC[C@]12[C@H](OC(C)=O)[C@H](OC(C)=O)[C@@H]3[C@@H](OC(C)=O)[C@@]14O[C@@]3(C)COC(=O)c1cccnc1CC[C@@](C)(O)C(=O)O[C@@H]([C@H](OC(=O)c1ccccc1)[C@@H]2OC(C)=O)[C@]4(C)O | 8% | 2% | -6% | 50% | 4% | 35% |  |  |  |  |  | 
CC(=O)OC[C@]12[C@H](OC(C)=O)[C@H](OC(C)=O)[C@@H]3[C@@H](OC(=O)c4ccccc4)[C@@]14O[C@@]3(C)COC(=O)c1cccnc1C(C)C(C)C(=O)O[C@@H]([C@H](OC(=O)c1cccnc1)[C@@H]2OC(C)=O)[C@]4(C)O (stereo partly specified) [HYPONINE D] | -15% | -9% | 7% | 66% | 13% | 45% |  |  |  |  |  | 
CC(=O)OC[C@]12[C@H](OC(C)=O)[C@H](OC(C)=O)[C@@H]3[C@@H](O)[C@@]14O[C@@]3(C)COC(=O)c1cccnc1CC[C@@](C)(OC(=O)c1ccccc1)C(=O)O[C@@H]([C@H](OC(C)=O)[C@@H]2OC(C)=O)[C@]4(C)O [WILFORNINE B] | -23% | -6% | -3% | 100% | 7% | 22% |  |  |  |  |  | 
CC(=O)OC[C@]12[C@H](OC(C)=O)C(=O)[C@@H]3[C@@H](OC(C)=O)[C@@]14O[C@@]3(C)COC(=O)c1cccnc1CC[C@@](C)(O)C(=O)O[C@@H]([C@H](OC(C)=O)[C@@H]2OC(C)=O)[C@]4(C)O |  |  |  |  |  |  | inactive | inactive | inactive | inactive | inactive | inactive
CC(=O)OC[C@]12[C@H](OC(C)=O)[C@H](OC(C)=O)[C@@H]3[C@@H](OC(=O)c4ccccc4)[C@@]14O[C@@]3(C)COC(=O)c1cccnc1C(C)C(C)C(=O)O[C@@H]([C@H](O)[C@@H]2OC(C)=O)[C@]4(C)O (stereo partly specified) |  |  |  |  |  |  | inactive | inactive | inactive | inactive | inactive | inactive
CC(=O)OC[C@]12[C@H](OC(C)=O)[C@H](OC(C)=O)[C@@H]3[C@@H](OC(C)=O)[C@@]14O[C@@]3(C)COC(=O)c1cccnc1CC[C@H](C)C(=O)O[C@@H]([C@H](OC(=O)c1ccco1)[C@@H]2OC(C)=O)[C@]4(C)O | 7% | 64% | 53% | -53% | 4% | 22% |  |  |  |  |  | 
CC(=O)OC[C@]12[C@H](OC(C)=O)[C@H](OC(C)=O)[C@@H]3[C@@H](OC(=O)c4ccccc4)[C@@]14O[C@@]3(C)COC(=O)c1cccnc1C(C)C(C)C(=O)O[C@@H]([C@H](OC(C)=O)[C@@H]2OC(=O)c1ccccc1)[C@]4(C)O (stereo partly specified) | 97% | 76% | 49% | 100% | 92% | 100% |  |  |  |  |  | 
CC(=O)OC[C@]12[C@H](OC(C)=O)[C@H](OC(C)=O)[C@@H]3[C@@H](OC(C)=O)[C@@]14O[C@@]3(C)COC(=O)c1cnccc1C(C)C(C)C(=O)O[C@@H]([C@H](OC(C)=O)[C@@H]2O)[C@]4(C)O (stereo partly specified) |  |  |  |  |  |  | inactive | inactive | inactive | inactive | inactive | inactive
CC(=O)OC[C@]12[C@H](OC(C)=O)[C@H](OC(C)=O)[C@@H]3[C@@H](OC(C)=O)[C@@]14O[C@@]3(C)COC(=O)c1cccnc1CC[C@@](C)(OC(=O)c1ccccc1)C(=O)O[C@@H]([C@H](OC(C)=O)[C@@H]2OC(C)=O)[C@]4(C)O [WILFORNINE A] | 2% | 0% | -4% | 50% | 8% | 23% |  |  |  |  |  | 
COC(=O)C[C@@H]1C(=O)CCC(C)C(=O)O[C@@H]2[C@@H]3[C@@H](OC(C)=O)[C@@]45O[C@@]3(C)COC(=O)c3cccnc3C(C)C(C)C(=O)O[C@@H]([C@H](OC(C)=O)[C@H](OC(C)=O)[C@@]4(COC1=O)[C@@H]2OC(C)=O)[C@]5(C)O (stereo partly specified) [TRIPTONINE A] | 43% | 62% | 55% | -20% | 17% | 33% |  |  |  |  |  | 
